Counter-ions that a name gives are not always drawn. Like-named read-outs stand apart in the source and are kept apart here.
Tests used:
[1] = tested on: CCL17 secretion in peripheral human whole blood; assay: Human Whole Blood (HWB) CCL17 TR-FRET Assay (IL-13 stimulated CCL17 secretion); assay type: cell-based; conditions: human whole blood, IL-13 stimulated
Outline: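 TR-FRET sandwich immunoassay (665/615 nm ratio) read CCL17 in serum from heparinized whole blood after 16 h RT detection. Blood was exposed to compound for 2 h at 37 °C, then to 10 ng/mL IL-13 (final) for 48 h. IC50 from 11-point, 3-fold titrations in duplicate.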

STAT6 = target: T1, STAT6 (Homo sapiens, UniProt P42226); assay: STAT6 Reporter Luciferase Assay (IL-13 stimulated HaCaT keratinocyte NanoLuc reporter cells); assay type: cell-based
T1 construct: stably transfected HaCaT keratinocyte cell line, which expresses NanoLuc luciferase reporter gene under the transcriptional control of the STAT6 responsive promoter; endogenous in cells; host or cells: HaCaT keratinocyte reporter cell line (stably transfected with a NanoLuc reporter)
T1 sequence (P42226 1-847): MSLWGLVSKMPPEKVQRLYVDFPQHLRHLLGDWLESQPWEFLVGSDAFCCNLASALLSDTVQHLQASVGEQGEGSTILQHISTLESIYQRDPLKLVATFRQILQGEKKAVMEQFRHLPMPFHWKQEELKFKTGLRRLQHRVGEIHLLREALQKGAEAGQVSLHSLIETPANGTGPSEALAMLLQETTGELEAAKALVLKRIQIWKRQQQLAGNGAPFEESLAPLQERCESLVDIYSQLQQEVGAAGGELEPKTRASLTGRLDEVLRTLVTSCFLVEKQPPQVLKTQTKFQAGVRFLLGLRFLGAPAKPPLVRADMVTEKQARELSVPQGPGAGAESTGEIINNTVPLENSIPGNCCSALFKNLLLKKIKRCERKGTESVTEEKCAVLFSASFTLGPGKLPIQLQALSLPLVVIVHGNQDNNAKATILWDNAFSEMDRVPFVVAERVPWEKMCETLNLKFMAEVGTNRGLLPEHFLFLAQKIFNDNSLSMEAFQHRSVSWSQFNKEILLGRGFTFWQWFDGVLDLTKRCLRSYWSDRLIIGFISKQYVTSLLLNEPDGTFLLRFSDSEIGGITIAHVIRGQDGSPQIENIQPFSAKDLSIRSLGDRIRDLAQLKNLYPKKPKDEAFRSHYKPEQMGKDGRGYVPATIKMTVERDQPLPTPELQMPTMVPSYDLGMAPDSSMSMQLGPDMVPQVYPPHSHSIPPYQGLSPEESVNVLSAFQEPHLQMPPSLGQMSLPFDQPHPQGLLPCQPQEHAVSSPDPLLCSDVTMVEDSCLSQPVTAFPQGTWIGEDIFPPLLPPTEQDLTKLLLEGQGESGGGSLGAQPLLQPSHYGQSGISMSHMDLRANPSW
Outline: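 Compounds were tested as 11-point, 4-fold series in duplicate, applied for 2 h at 37 °C in low-serum (2% FBS) DMEM. The cells were a stable HaCaT line with NanoLuc under a STAT6-responsive IL-13Ra2 promoter. After 4 h with 0.12 nM IL-13, Nano-Glo luminescence was measured.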

[2] = IL-13 stimulated HaCaT STAT6 NanoLuc reporter cells, read-out: Reporter EC50

Compound	IC50 ([1]; Homo sapiens, 48 h) [µM]	EC50 (STAT6; [2]) [µM]	IC50 ([1]; 48 hours) [µM]	EC50 (STAT6; Reporter EC50, IL-13 stimulated HaCaT STAT6 NanoLuc reporter cells) [µM]
CC(C)n1nc(C(=O)NCc2ccc(NC(=O)N3CCC(OC4CCNCC4)CC3)cc2)c2c1[C@@H](C)CN(c1ccc(C(=O)N(C)C)cc1)C2 [Example 485, (S)-5-(4-(Dimethylcarbamoyl)phenyl)-1-isopropyl-7-methyl-N-(4-(4-(piperidin-4-yloxy)piperidine-1-carboxamido)benzyl)-4,5,6,7-tetrahydro-1H-pyrazolo[4,3-c]pyridine-3-carboxamide hydrochloride]			0.004	0.001
CCn1nc(C(=O)NCc2ccc(NC(=O)N(C)C)cc2)c2c1[C@@H](C)CN(c1ncc(N3CCCC3=O)cn1)C2 [Example 488, (S)-N-(4-(3,3-dimethylureido)benzyl)-1-ethyl-7-methyl-5-(5-(2-oxopyrrolidin-1-yl)pyrimidin-2-yl)-4,5,6,7-tetrahydro-1H-pyrazolo[4,3-c]pyridine-3-carboxamide]	0.027	0.003		
CNC(=O)c1ccc(CNC(=O)c2nn(C(C)C)c3c2CN(c2ncc(N4CCCC4=O)cn2)C[C@@H]3C)cc1 [Example 490, (S)-1-isopropyl-7-methyl-N-(4-(methylcarbamoyl)benzyl)-5-(5-(2-oxopyrrolidin-1-yl)pyrimidin-2-yl)-4,5,6,7-tetrahydro-1H-pyrazolo[4,3-c]pyridine-3-carboxamide]	0.05	0.013		
CC(C)n1nc(C(=O)NCc2ccc(N)cc2)c2c1[C@@H](C)CN(c1ncc(C(=O)N(C)C)cn1)C2 [Example 491, (S)-N-(4-aminobenzyl)-5-(5-(dimethylcarbamoyl)pyrimidin-2-yl)-1-isopropyl-7-methyl-4,5,6,7-tetrahydro-1H-pyrazolo[4,3-c]pyridine-3-carboxamide]	0.034	0.007		
CCn1nc(C(=O)NCc2ccc(NC(=O)N(C)C)cc2)c2c1[C@@H](C)CN(c1ncc(C(=O)N3Cc4cccnc4C3)cn1)C2 [Example 495, (S)-5-(5-(6,7-dihydro-5H-pyrrolo[3,4-b]pyridine-6-carbonyl)pyrimidin-2-yl)-N-(4-(3,3-dimethylureido)benzyl)-1-ethyl-7-methyl-4,5,6,7-tetrahydro-1H-pyrazolo[4,3-c]pyridine-3-carboxamide]	0.034	0.001		
CC(C)n1nc(C(=O)NCc2ccc(NC(=O)N(C)C)cc2)c2c1[C@@H](C)CN(c1ncc(C(=O)O)cn1)C2 [Example 498, (S)-2-(3-((4-(3,3-Dimethylureido)benzyl)carbamoyl)-1-isopropyl-7-methyl-1,4,6,7-tetrahydro-5H-pyrazolo[4,3-c]pyridin-5-yl)pyrimidine-5-carboxylic acid]	3.44	0.133		
CC(C)n1nc(C(=O)NCc2ccc(NC(=O)N(C)C)cc2)c2c1[C@@H](C)CN(c1ncc(C(=O)NCc3ccc(NC(=O)N(C)C)cc3)cn1)C2 [Example 500, (S)-N-(4-(3,3-dimethylureido)benzyl)-5-(5-((4-(3,3-dimethylureido)benzyl)carbamoyl)pyrimidin-2-yl)-1-isopropyl-7-methyl-4,5,6,7-tetrahydro-1H-pyrazolo[4,3-c]pyridine-3-carboxamide]	0.104	0.011		
CC(C)n1nc(C(=O)NCc2ccc(NC(=O)N(C)C)cc2)c2c1[C@@H](C)CN(c1ccc(C(=O)NCc3ccc(NC(=O)N(C)C)cc3)cn1)C2 [Example 501, (S)-N-(4-(3,3-dimethylureido)benzyl)-5-(5-((4-(3,3-dimethylureido)benzyl)carbamoyl)pyridin-2-yl)-1-isopropyl-7-methyl-4,5,6,7-tetrahydro-1H-pyrazolo[4,3-c]pyridine-3-carboxamide]	0.05	0.007		
C[C@H]1CN(c2ncc(-c3nccn3C)cn2)Cc2c(C(=O)NCc3ccc(NC(=O)N(C)C)cc3)nn(C)c21 [Example 502, (S)-N-(4-(3,3-dimethylureido)benzyl)-1,7-dimethyl-5-(5-(1-methyl-1H-imidazol-2-yl)pyrimidin-2-yl)-4,5,6,7-tetrahydro-1H-pyrazolo[4,3-c]pyridine-3-carboxamide]	7.55	0.813		
CC(C)n1nc(C(=O)NCc2ccc(NC(=O)N(C)C)cc2)c2c1[C@@H](C)CN(c1ccc(C(=O)O)cn1)C2 [Example 504, (S)-6-(3-((4-(3,3-dimethylureido)benzyl)carbamoyl)-1-isopropyl-7-methyl-1,4,6,7-tetrahydro-5H-pyrazolo[4,3-c]pyridin-5-yl)nicotinic acid]	> 21.2	0.874		

More lines, in order of falling IC50 ([1]; Homo sapiens, 48 h), values ahead:

IC50 ([1]; Homo sapiens, 48 h) [µM]	EC50 (STAT6; [2]) [µM]	Compound	IC50 ([1]; 48 hours) [µM]	EC50 (STAT6; Reporter EC50, IL-13 stimulated HaCaT STAT6 NanoLuc reporter cells) [µM]
0.017	0.018	CC(C)n1nc(C(=O)NCc2ccc(C(N)=O)cc2)c2c1[C@@H](C)CN(c1ncc(N3CCCC3=O)cn1)C2 [Example 489, (S)-N-(4-carbamoylbenzyl)-1-isopropyl-7-methyl-5-(5-(2-oxopyrrolidin-1-yl)pyrimidin-2-yl)-4,5,6,7-tetrahydro-1H-pyrazolo[4,3-c]pyridine-3-carboxamide]		
0.016	0.002	CC(C)n1nc(C(=O)NCc2ccc(-c3ncc[nH]3)cc2)c2c1[C@@H](C)CN(c1ncc(N3CCCC3=O)cn1)C2 [Example 487, (S)-N-(4-(1H-imidazol-2-yl)benzyl)-1-isopropyl-7-methyl-5-(5-(2-oxopyrrolidin-1-yl)pyrimidin-2-yl)-4,5,6,7-tetrahydro-1H-pyrazolo[4,3-c]pyridine-3-carboxamide]		
0.016	0.004	CNC(=O)c1ccc(CNC(=O)c2nn(C(C)C)c3c2CN(c2ncc(C(=O)N4Cc5cccnc5C4)cn2)C[C@@H]3C)cc1 [Example 496, (S)-5-(5-(6,7-dihydro-5H-pyrrolo[3,4-b]pyridine-6-carbonyl)pyrimidin-2-yl)-1-isopropyl-7-methyl-N-(4-(methylcarbamoyl)benzyl)-4,5,6,7-tetrahydro-1H-pyrazolo[4,3-c]pyridine-3-carboxamide]		
0.016	0.001	CCOC(=O)Nc1ccc(CNC(=O)c2nn(C(C)C)c3c2CN(c2ccc(C(=O)N(C)C)cn2)C[C@@H]3C)cc1 [Example 497, ethyl (S)-(4-((5-(5-(dimethylcarbamoyl)pyridin-2-yl)-1-isopropyl-7-methyl-4,5,6,7-tetrahydro-1H-pyrazolo[4,3-c]pyridine-3-carboxamido)methyl)phenyl)carbamate]		
0.013	0.001	CCOC(=O)Nc1ccc(CNC(=O)c2nn(C(C)C)c3c2CN(c2ncc(C(=O)N(C)C)cn2)C[C@@H]3C)cc1 [Example 503, ethyl (S)-(4-((5-(5-(dimethylcarbamoyl)pyrimidin-2-yl)-1-isopropyl-7-methyl-4,5,6,7-tetrahydro-1H-pyrazolo[4,3-c]pyridine-3-carboxamido)methyl)phenyl)carbamate]		
0.011	0.002	CC(C)n1nc(C(=O)NCc2ccc(NC(=O)N(C)C)cc2)c2c1[C@@H](C)CN(c1ncc(N3CCCC3=O)cn1)C2 [Example 486, (S)-N-(4-(3,3-dimethylureido)benzyl)-1-isopropyl-7-methyl-5-(5-(2-oxopyrrolidin-1-yl)pyrimidin-2-yl)-4,5,6,7-tetrahydro-1H-pyrazolo[4,3-c]pyridine-3-carboxamide]		
0.006	0.0003	CC(C)n1nc(C(=O)NCc2ccc(NC(=O)NCc3ccc(NC(=O)N(C)C)cc3)cc2)c2c1[C@@H](C)CN(c1ccc(C(=O)N(C)C)cn1)C2 [Example 499, (S)-5-(5-(dimethylcarbamoyl)pyridin-2-yl)-N-(4-(3-(4-(3,3-dimethylureido)benzyl)ureido)benzyl)-1-isopropyl-7-methyl-4,5,6,7-tetrahydro-1H-pyrazolo[4,3-c]pyridine-3-carboxamide]		
0.004	0.0005	CC(C)n1nc(C(=O)NCc2ccc(NC(=O)NCc3ccc(NC(=O)N(C)C)cc3)cc2)c2c1[C@@H](C)CN(c1ncc(C(=O)N(C)C)cn1)C2 [Example 492, (S)-5-(5-(dimethylcarbamoyl)pyrimidin-2-yl)-N-(4-(3-(4-(3,3-dimethylureido)benzyl)ureido)benzyl)-1-isopropyl-7-methyl-4,5,6,7-tetrahydro-1H-pyrazolo[4,3-c]pyridine-3-carboxamide]		
